Consider 2 compounds from patent US9359322B2, “C-linked glucuronide of N-(4-hydroxybenzyl) retinone, analogs thereof, and methods of using the same to inhibit neoplastic cell growth” (Wisconsin Alumni Research Foundation, priority 2005, dated 2016).

In data set [1] the test system is DMBA-induced rat mammary tumor. The note with it: cited from earlier work.
For data set [2] the following is noted: cited from earlier work.
For data set [3], the target named is serum retinol-binding protein, RBP (Homo sapiens, UniProt P02753). The note with it: cited from earlier work.
The test system of data set [4] is DMBA-induced rat mammary tumor. Put plainly: DMBA-induced rat mammary tumor model, retinoid-containing diets. The format is in vivo. The protocol:
Preliminary evaluation of the mammary tumor chemotherapeutic activity of 4-HBRCG (7) was conducted, and its toxicity profile was also assessed. As previously described,^7, 12 tumor-bearing female rats (treated ca. 50 days earlier with 7,12-dimethylbenz(a)anthracene [DMBA]) were fed the control or retinoid-containing diets (RA (2), 4-HPR (3) or 4-HBRCG (7)) at 2 mmole/kg diet for 22 days.
(§1) Animal Studies: Mammary tumors were induced by intragastric intubation of 50-day old female Sprague-Dawley rats (Harlan Industries, Indianapolis, Ind.) with a single dose of 15 mg DMBA in 1.0 ml of sesame oil per rat. The rats were then maintained on a powdered Teklad 22/5 rodent chow diet (W) 8640 (Harlan Industries, Indianapolis, Ind.), and allowed food and water ad libitum. Four months later, rats which had developed palpable tumors were randomly assigned to the experimental groups (4 rats/group). The retinoid-treated groups were fed diets supplemented with 2 mmol/kg diet of atRA, 4-HPR, or 4-HBRCG, respectively. The retinoids were added to the diet in a vehicle consisting of 25 ml of ethanol: tricaprylin (1:4 v/v) plus 2% (w/v) of α-tocopherol as previously described.^9 This vehicle was also added to the control diet. The additives were blended into the chow diets using a Hobart food mixer. The diets were fed in stainless steel feeders designed with food hoppers. The food was replaced weekly with freshly prepared diets. Food consumption was determined once weekly, and from that the average daily consumption/rat was estimated. These diets were continuously fed for 22 days. Animals were also weighted weekly and monitored for general health status and signs of possible toxicity due to treatment.
(§2) Baseline measurement of initial tumor sizes, numbers and rat body weights were determined immediately before commencement of treatments, and final measurements were recorded just prior to sacrifice of the animals. Animals were palpated for tumors twice weekly and tumor diameters were measured weekly by a micrometer caliper. Tumor volumes were calculated using the formula [V= 4/3 πr^3] where r is one-half the mean of the sum of the largest diameter and the axis at right angle to it. All tumors as well as lungs, liver, kidney and femur were excised at the end of the experiment for chemical and histopathological evaluation. Blood samples were also taken from each animal for determination of plasma retinol and triglyceride levels.

A short description of data set [5]: Body weight change during retinoid feeding. Conditions: relative to baseline body weight over 22 days; 2 mmol/kg diet. The format is in vivo, rat. On the procedure:
as §1, §2

Data set [6] can be described thus: Plasma retinol level (HPLC). Type of data set: in vivo, rat. The note with it: 2 mmol/kg diet. The protocol: as §2
(§3) Plasma Retinoid Assay. To 500 μL of plasma was added 150 μL of ethanol containing 0.75 μg of internal standard (N-(4-chlorophenyl) retinamide). After mixing 30 sec., 500 μL of ethyl acetate was added followed by 1 min. of mixing and centrifugation for 5 minutes at 1000 rpm in an IEC CL centrifuge. The ethyl acetate layer was removed and syringe filtered through a 0.45 um filter. The ethyl acetate extraction was repeated two more times. The combined extracts were evaporated and the residue reconstituted in 100 μL of methanol. The methanol extract (20 μL) was analyzed by HPLC on a Beckman Instruments model 127 instrument equipped with a model 166 UV detector. Chromatography was done on a precolumn equipped 250×4.6 mm Bechman Ultrasphere ODS column with an 85% methanol/water mobile phase (both containing 10 mM ammonium acetate) flowing at 1 mL/min. Analysis for both internal standard and retinol was conducted at 350 nm and internal standard recoveries and retinol levels were determined by comparison with standard curves, with adjustment of the retinol level based on recovery. Recoveries of internal standard averaged ca. 78%. […] In the 4-HPR treated group, plasma levels of this retinoid were evaluated simultaneously in the same samples as above. In order to avoid interfering substances, plasma treatment retinoid levels for RA and 4-HBRCG were measured using the above system and a step gradient of 75% methanol for 15 min. followed by 85% methanol for 40 minutes.

The nature of data set [7]: Terminal plasma drug levels (plasma retinoid assay, HPLC). The format is in vivo, rat. Conditions: day 22 of treatment; 2 mmol/kg diet; ± SEM. On the procedure:
as §3

Data set [8] in a line: Plasma triglyceride measurement. Type of data set: in vivo, rat. The note with it: 2 mmol/kg diet, 22 days; FIG. 2A. The protocol:
Plasma Triglyceride Measurement. Bloods were drawn from anesthetized animals in the presence of EDTA as an anticoagulant, and the resulting plasma was used for the measurement of plasma “true” triglyceride levels using a kit from Sigma-Aldrich (Saint Louis, Mo.). Briefly, the total plasma triglyceride and glycerol concentrations were determined, and the glycerol component was subtracted from the total plasma triglyceride measurement to obtain the “true” serum triglyceride concentration.

A short description of data set [9]: Femur bone mineral content. Type of data set: in vivo, rat. The note with it: end of feeding study; FIG. 2B. The source says:
Bone Mineral Content. The femur was disarticulated from the leg, and the adhering soft tissue was removed by dissection. Femurs were scanned using the Lunar PIXImus 2 system (Model X2608, General Electric using the LUNAR software version 1.45), and control measurements were made using the small animal quality control phantom. Femurs were scanned 5 times each with re-positioning at each measure. The average value of the bone mineral content (BMC) in grams for each animal is reported as one independent measure.

The test system of another data set is CYP26A1 mRNA. Put plainly: Induction of CYP26A1 mRNA in liver (Q-PCR). The format is in vivo, rat. Conditions: at sacrifice, retinoid-fed rats, 2 mmol/kg diet; FIG. 4.
The subject of data set [10] is CYP26B1 mRNA. Put plainly: Induction of CYP26B1 mRNA in lung (Q-PCR). Type of data set: in vivo, rat. Conditions: at sacrifice, retinoid-fed rats, 2 mmol/kg diet; data not shown.
The target in the next data set is T1, RARβ (Homo sapiens, UniProt P10826).
T1 sequence (P10826 1-455): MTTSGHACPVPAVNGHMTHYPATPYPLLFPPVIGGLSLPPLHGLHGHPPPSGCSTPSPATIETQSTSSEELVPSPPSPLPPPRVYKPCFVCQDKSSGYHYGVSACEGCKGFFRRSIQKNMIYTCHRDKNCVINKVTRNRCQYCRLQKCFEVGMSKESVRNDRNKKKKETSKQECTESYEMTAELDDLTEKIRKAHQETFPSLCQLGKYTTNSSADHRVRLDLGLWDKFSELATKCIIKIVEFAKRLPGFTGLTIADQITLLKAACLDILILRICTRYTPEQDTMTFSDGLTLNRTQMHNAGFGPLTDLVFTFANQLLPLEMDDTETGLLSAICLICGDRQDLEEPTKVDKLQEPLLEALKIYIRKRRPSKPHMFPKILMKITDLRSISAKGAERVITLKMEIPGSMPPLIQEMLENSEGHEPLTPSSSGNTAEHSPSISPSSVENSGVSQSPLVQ
The note with it: cited from earlier work.

The target of a further data set is T2, RARγ (Homo sapiens, UniProt P13631).
T2 sequence (P13631 1-454): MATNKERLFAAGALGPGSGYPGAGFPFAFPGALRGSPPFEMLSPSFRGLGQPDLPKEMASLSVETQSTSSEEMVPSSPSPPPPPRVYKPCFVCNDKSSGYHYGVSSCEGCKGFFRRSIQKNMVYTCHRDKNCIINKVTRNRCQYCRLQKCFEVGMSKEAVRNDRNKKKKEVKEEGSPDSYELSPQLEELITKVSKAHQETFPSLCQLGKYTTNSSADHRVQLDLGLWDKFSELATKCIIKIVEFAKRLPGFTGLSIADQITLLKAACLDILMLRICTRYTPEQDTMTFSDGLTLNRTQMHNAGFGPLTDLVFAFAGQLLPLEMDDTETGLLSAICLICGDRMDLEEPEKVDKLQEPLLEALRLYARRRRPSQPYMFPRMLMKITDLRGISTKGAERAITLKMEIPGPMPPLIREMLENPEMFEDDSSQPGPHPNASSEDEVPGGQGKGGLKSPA
The note with it: cited from earlier work.

The test system of data set [11] is CYP26B1 mRNA. Conditions: vitamin A-deficient rats; background; cited from earlier work.
The conditions of data set [12]: background statement; cited from earlier work.
For data set [13] the following is noted: vitamin A-deficient rats; cited from earlier work.
Setting [14] is: number of individual tumors, 2 mmol/kg diet, 22 days.

Marks after values point to notes of the source that are not given here.

For the compound `CC1=C(/C=C/C(C)=C/C=C/C(C)=C/C(=O)Cc2ccc(O)cc2)C(C)(C)CCC1` [4-HBR, 4-hydroxybenzyl retinone], in data set [1], the “Chemotherapeutic activity in DMBA-induced rat mammary tumor model” value is listed as “equiactive chemotherapeutics”. In addition, the “Effect on blood retinol levels” value in data set [2] is listed as “does not lower blood retinol levels”. For the same compound, the “Binding to RBP” value in data set [3] is given as “equivalent binding to RBP”.
`CC1=C(/C=C/C(C)=C/C=C/C(C)=C/C(=O)Nc2ccc(O)cc2)C(C)(C)CCC1` [4-HPR (3), N-(4-hydroxyphenyl) retinamide]: the “% Change in tumor volume from baseline” value in data set [4] (2 mmol/kg diet for 22 days) was −33 ^d %. In addition, the Final tumor volume in data set [4] (2 mmol/kg diet for 22 days, mean ± SEM) amounted to 0.08 ± 0.02 cm^3. Besides, the Initial tumor volumes in data set [4] (baseline before treatment, mean ± SEM) worked out at 0.12 ± 0.03 cm^3. Also, in data set [4] (setting [14]), the “Complete regression (tumors that totally disappeared)” value is on record as 1, the No effect is given as 3 and the “Partial regression (tumors with 25-75% decrease in volume)” value is reported as 15. In addition, the New tumors in [4] (number of tumors, 2 mmol/kg diet, 22 days) is recorded as 0. The “% Weight change” value in [5] is listed as “+3%”. The “Effect on blood retinol” value in [6] is given as “the same amount of 4-HPR did”. In addition, the Plasma retinol in data set [6] (day 22 of treatment, mean ± SEM) is listed as 0.21 ± 0.05 ^e μg/ml. Moreover, the “Plasma retinoid concentration (terminal plasma drug level)” value in [7] came out at 0.67 ± 0.07 µg/mL. The “Effect on serum triglyceride concentration” value in [8] was “small but insignificant increase”. Also, the “Effect on femur bone mineral content vs control” value in [9] was “showed no such effect”. The “Induction of CYP26A1 mRNA in liver” value in the data set on CYP26A1 mRNA worked out at 37 fold above control. The “Induction of CYP26B1 mRNA in lung” value with CYP26B1 mRNA [10] was found to be 20 fold above control. In data set [1], the “Chemotherapeutic activity in DMBA-induced rat mammary tumor model” value is on record as “equiactive chemotherapeutics”. Besides, at RARβ, the “Times less potent than atRA in competing for [3H]atRA binding to RARβ” value was about 3000 times. Besides, the “Times less able than atRA to compete for binding to RARγ” value on RARγ was 2500 times. For the same compound, the “Induction of CYP26B1 mRNA expression in lungs” value in the data set on CYP26B1 mRNA [11] is given as “induces CYP26B1 mRNA expression in a RA-like manner”. In addition, the “Teratogenicity relative to RA” value in [12] was 100 times less teratogenic than RA. For the same compound, the “Binding to RBP” value in [3] is “equivalent binding to RBP”. The “Hydrolysis to liberate retinoic acid” value in data set [13] is given as “is hydrolyzed to liberate retinoic acid”.
